In patent US20110251379A1, “COMPOUNDS USEFUL FOR TREATING NEURODEGENERATIVE DISORDERS” (Satori Pharmaceuticals, Inc., priority 2010, published 2011) one finds IC50 and inhibition data, which are given here for 31 compounds.

Structures are written as SMILES. pIC50: −log10 of the molar value.

For the first test, the system named is amyloid-beta (1-42) peptide. As to the kind of experiment: ELISA assay of amyloid-beta (1-42) in conditioned media of 2B7 cells. In kind it is cell-based. The conditions noted are these: 5 h, Aβ-42, 2B7 cells, 5 hours; read-out: IC50 range. As for the experimental part: Compounds of the present invention, and extracts comprising said compounds, may be assayed as inhibitors of amyloid-beta (1-42) peptide in vitro or in vivo. Such assay methods are described in detail in U.S. Pat. No. 6,649,196, the entirety of which is hereby incorporated herein by reference.
In certain embodiments, provided compounds of the present invention, and extracts comprising said compounds, were assayed as inhibitors of amyloid-beta (1-42) peptide in vitro using an ELISA assay.
Capture Plate Prep: • 6E10 was diluted to 5.0 ug/mL in 100 mM NaHCO3 pH 8.2 (10 ug aliquot per 2 mL buffer); • 100 uL capture antibody solution was added to wells of 96 well plate; • Incubated overnight at 4° C. sealed; • Aspirated off capture antibody; and • Blocked with 250 uL of Blocking Buffer for 2-4 hours at rt sealed.
Conditioned Media: • Cultured 2B7 cells in 96 well plate with 250 uL of media per well until confluent; • Prepared serial dilution of compounds in DMSO at 100× the final desired concentration; • Washed wells with 2B7 cells lx with 250 uL of media; • Diluted DMSO stocks 1:100 into media and mix; and • Added 250 μL of media containing compounds (1% DMSO) to wells with 2B7 cells for 5 hours at 37° C.
Elisa Sample Prep: • Diluted conditioned media 1:2 into blocking buffer; • NOTE: If assaying for A-Beta 1-40 or total A-Beta, then diluted above sample 1:10 with a 50/50 mixture of non-conditioned media containing 1% DMSO and blocking buffer.
Standard Curve Sample Prep: • Diluted appropriate A-Beta peptide stock (stored in 1% NH4OH) to 200 μg/mL in blocking buffer; • Prepared a 1:2 serial dilution from the 200 μg/mL sample (150 μL into 150 μL blocking buffer); and • Added equal volume of standard curve samples to non-conditioned media with 1% DMSO.
Overnight Sample Incubation: • Aspirated blocking buffer from blocked plate; • Added 100 μL of samples to wells of plate (samples will be 50% media with 1% DMSO and 50% blocking buffer; and • Incubated overnight at 4° C. sealed.
Addition of Detection Antibody: • Aspirated off samples, wash 2× with 250 μL blocking buffer; and • Added 100 μL detection antibody labeled with HRP at 0.25 ug/mL in blocking buffer for 4 hours at room temperature sealed.
Final Wash and Readout: • Aspirated wells, wash 5× with 250 μL of PBS-T (2 minutes each wash at 30 RPM); • Added 100 μL TMB for 20 minutes; • Added 100 μL of 1M H3PO4; and • Read at 450 nm.
Coating Buffer (100 mM NaHCO3 pH 8.2)
PBS-T (PBS with 0.05% Tween-20)
Blocking Buffer (1% BSA in PBS-T)
With `CC(=O)O[C@@H]([C@H]1C[C@@H](C)C2C(O1)[C@H](O)[C@@]1(C)[C@@H]3CC[C@H]4C(C)(C)[C@@H](OC5CN(C6CCCC6)CCO5)CC[C@@]45C[C@@]35CC[C@]21C)C(C)(C)O` (stereo partly drawn), the pIC50 is at least 6.00. For `CC(=O)O[C@@H]([C@H]1C[C@@H](C)C2C(O1)[C@H](O)[C@@]1(C)[C@@H]3CC[C@H]4C(C)(C)[C@@H](OC5CN(CCN6CCOCC6)CCO5)CC[C@@]45C[C@@]35CC[C@]21C)C(C)(C)O` (stereo partly drawn), the pIC50 was at least 6.00. For the compound `CC(=O)O[C@@H]([C@H]1C[C@@H](C)C2C(O1)[C@H](O)[C@@]1(C)[C@@H]3CC[C@H]4C(C)(C)[C@@H](OC(=O)CN(C)C)CC[C@@]45C[C@@]35CC[C@]21C)C(C)(C)O` (stereo partly drawn), the pIC50 is at least 6.00. For `CC(=O)O[C@@H]([C@H]1C[C@@H](C)C2C(O1)[C@H](O)[C@@]1(C)[C@@H]3CC[C@H]4C(C)(C)[C@@H](OC(=O)c5ccccn5)CC[C@@]45C[C@@]35CC[C@]21C)C(C)(C)O` (stereo partly drawn), the pIC50 is at least 6.00.

For the compound `CC(=O)O[C@@H]([C@H]1C[C@@H](C)[C@H]2[C@H](O1)[C@H](O)[C@@]1(C)[C@@H]3CC[C@H]4C(C)(C)[C@@H](O[C@H]5CN(CCN(C)C)CCO5)CC[C@@]45C[C@@]35CC[C@]21C)C(C)(C)O`, the pIC50 was at least 6.00. With `CC(=O)O[C@@H]([C@H]1C[C@@H](C)[C@H]2[C@H](O1)[C@H](O)[C@@]1(C)[C@@H]3CC[C@H]4C(C)(C)[C@@H](O[C@H]5CN(CCN6CCCC6)CCO5)CC[C@@]45C[C@@]35CC[C@]21C)C(C)(C)O`, the negative logarithm of the IC50 (pIC50) was at least 6.00. For `CC(=O)O[C@@H]([C@H]1C[C@@H](C)[C@H]2[C@H](O1)[C@H](O)[C@@]1(C)[C@@H]3CC[C@H]4C(C)(C)[C@@H](O[C@H]5CN(C6CCC6)CCO5)CC[C@@]45C[C@@]35CC[C@]21C)C(C)(C)O`, the pIC50 was at least 6.00.

Consider `CC(=O)O[C@@H]([C@H]1C[C@@H](C)[C@H]2[C@H](O1)[C@H](O)[C@@]1(C)[C@@H]3CC[C@H]4C(C)(C)[C@@H](O[C@H]5CN(CCO)CCO5)CC[C@@]45C[C@@]35CC[C@]21C)C(C)(C)O`, for which the pIC50 is at least 6.00.

For the compound `CC(=O)O[C@@H]([C@H]1C[C@@H](C)[C@H]2[C@H](O1)[C@H](O)[C@@]1(C)[C@@H]3CC[C@H]4C(C)(C)[C@@H](O[C@H]5CN(CC(F)(F)F)CCO5)CC[C@@]45C[C@@]35CC[C@]21C)C(C)(C)O`, the negative-log IC50 (pIC50) is at least 6.00.

As for `CC(=O)O[C@@H]([C@H]1C[C@@H](C)[C@H]2[C@H](O1)/C(=N/O)[C@H]1C3CCC4C(C)(C)[C@@H](OC5OC[C@@H](O)[C@H](O)[C@H]5O)CC[C@@]45C[C@@]35CC[C@]21C)C(C)(C)O` (stereo partly drawn), the negative logarithm of the IC50 (pIC50) was at least 6.00. Turning to `CC(=O)O[C@@H]([C@H]1C[C@@H](C)[C@H]2[C@H](O1)C1(SCCS1)[C@@]1(C)C3CCC4C(C)(C)[C@@H](O)CC[C@]4(C)C3=CC[C@]21C)C(C)(C)O` (stereo partly drawn), the negative-log IC50 (pIC50) is 5.00 to 6.00. On the same count and under the same terms, the figure for `CC(=O)O[C@@H]([C@H]1C[C@@H](C)[C@H]2[C@H](O1)[C@H](O)[C@@]1(C)[C@@H]3CC[C@H]4C(C)(C)[C@@H](O[C@@H](CN(C)C)OCCN(C)C)CC[C@@]45C[C@@]35CC[C@]21C)C(C)(C)O` is 5.00 to 6.00. In the case of `CC(=O)O[C@@H]([C@H]1C[C@@H](C)[C@H]2[C@H](O1)[C@H](O)[C@@]1(C)[C@@H]3CC[C@H]4C(C)(C)[C@@H](O[C@H]5CN(C6COC6)CCO5)CC[C@@]45C[C@@]35CC[C@]21C)C(C)(C)O`, the negative logarithm of the IC50 (pIC50) was at least 6.00. Regarding `CCN1CCO[C@@H](O[C@H]2CC[C@]34C[C@]35CC[C@]3(C)[C@@H]6[C@H](O[C@@H]([C@H](OC(C)=O)C(C)(C)O)C[C@H]6C)[C@H](O)[C@@]3(C)[C@@H]5CC[C@H]4C2(C)C)C1`, the negative logarithm of the IC50 (pIC50) was at least 6.00. Still for that read-out and setting: the figure for `CCCN1CCO[C@@H](O[C@H]2CC[C@]34C[C@]35CC[C@]3(C)[C@@H]6[C@H](O[C@@H]([C@H](OC(C)=O)C(C)(C)O)C[C@H]6C)[C@H](O)[C@@]3(C)[C@@H]5CC[C@H]4C2(C)C)C1` is 5.00 to 6.00; for `CC(=O)O[C@@H]([C@H]1C[C@@H](C)[C@H]2[C@H](O1)[C@H](O)[C@@]1(C)[C@@H]3CC[C@H]4C(C)(C)C(OC(=O)c5ccncc5)CC[C@@]45C[C@@]35CC[C@]21C)C(C)(C)O` (stereo partly drawn) it is at least 6.00. In the case of `CC(=O)O[C@@H]([C@H]1C[C@@H](C)[C@H]2[C@H](O1)[C@H](O)[C@@]1(C)[C@@H]3CC[C@H]4C(C)(C)C(OC(=O)[C@@H]5CCCN5)CC[C@@]45C[C@@]35CC[C@]21C)C(C)(C)O` (stereo partly drawn), the negative-log IC50 (pIC50) was at least 6.00. Same read-out and setting: then `CC(=O)O[C@@H]([C@H]1C[C@@H](C)[C@H]2[C@H](O1)[C@H](O)[C@@]1(C)[C@@H]3CC[C@H]4C(C)(C)C(OC(=O)C5CCCO5)CC[C@@]45C[C@@]35CC[C@]21C)C(C)(C)O` (stereo partly drawn), with at least 6.00; and `CC(C)C(O)[C@H]1C[C@@H](C)[C@H]2[C@H](O1)[C@H](O)[C@@]1(C)[C@@H]3CC[C@H]4C(C)(C)[C@@H](O)CC[C@@]45C[C@@]35CC[C@]21C` (stereo partly drawn), with under 5.00. Same read-out and setting: the figure for `C[C@@H]1C[C@H]([C@H](O)C(C)(C)O)O[C@H]2[C@H]1[C@@]1(C)CC[C@@]34C[C@@]35CC[C@H](O[C@H]3CN(CC(N)=O)CCO3)C(C)(C)[C@@H]5CC[C@H]4[C@]1(C)[C@H]2O` is under 5.00. Turning to `CC(=O)O[C@@H]([C@H]1C[C@@H](C)[C@H]2[C@H](O1)[C@H](O)[C@@]1(C)[C@@H]3CC[C@H]4C(C)(C)[C@@H](O[C@H]5CN(CCOCCOCCNC(=O)CCCC[C@@H]6SC[C@@H]7NC(=O)N[C@@H]76)CCO5)CC[C@@]45C[C@@]35CC[C@]21C)C(C)(C)O`, the pIC50 was at least 6.00. Regarding `CC(=O)O[C@@H]([C@H]1C[C@@H](C)[C@H]2[C@H](O1)[C@H](O)[C@@]1(C)[C@@H]3CC[C@H]4C(C)(C)[C@@H](OS(C)(=O)=O)CC[C@@]45C[C@@]35CC[C@]21C)C(C)(C)O`, the pIC50 was under 5.00. As to `CC(=O)O[C@@H]([C@H]1C[C@@H](C)[C@H]2[C@H](O1)[C@H](O)[C@@]1(C)[C@@H]3CC[C@H]4C(C)(C)[C@@H](OC(=O)Cc5ccccn5)CC[C@@]45C[C@@]35CC[C@]21C)C(C)(C)O`, the negative-log IC50 (pIC50) is at least 6.00. On to `C[C@@H]1C[C@H](CO)O[C@H]2C1[C@@]1(C)CC[C@@]34C[C@@]35CC[C@H](O[C@@H]3OC[C@@H](O)[C@H](O)[C@H]3O)C(C)(C)[C@@H]5CC[C@H]4[C@]1(C)[C@H]2O` (stereo partly drawn), for which the pIC50 is under 5.00. Same read-out and setting: the figure for `CC(=O)O[C@@H]([C@H]1C[C@@H](C)[C@H]2[C@H](O1)[C@H](O)[C@@]1(C)[C@@H]3CC[C@H]4C(C)(C)[C@@H](O[C@H]5CN(S(C)(=O)=O)CCO5)CC[C@@]45C[C@@]35CC[C@]21C)C(C)(C)O` is at least 6.00.

Still in this test, the particulars now being: Aβ-42, 2.5 umol/L; read-out: % Inhibition (range).
For `C[C@@H]1CC[C@@]2(NC1)OC1C[C@H]3C4CC=C5C[C@@H](O)CC[C@]5(C)C4CC[C@]3(C)C1[C@@H]2C` (stereo partly drawn), the inhibition at 2.5 µM was under 25%.

The test is the same for the next values; noted with them: Aβ-42, 10 umol/L; read-out: % Inhibition (range).
For the compound `C[C@@H]1C(O)CO[C@@]2(O)C[C@H]3[C@@H]4CC=C5C[C@@H](O[Si](C)(C)C(C)(C)C)CC[C@]5(C)[C@H]4CC[C@]3(C)[C@@H]12` (stereo partly drawn), the inhibition at 10 µM is under 25%. As for `C[C@@H]1C(I)COC2C[C@H]3[C@@H]4CC=C5C[C@@H](O)CC[C@]5(C)[C@H]4CC[C@]3(C)C21` (stereo partly drawn), the inhibition at 10 µM is under 25%. Take `CC(=O)O[C@H]1CC[C@]23C[C@]24CC[C@]2(C)C5C(C[C@@]2(C)C4CCC3C1(C)C)OC(O)(C(F)(F)F)C[C@H]5C` (stereo partly drawn): the inhibition at 10 µM is under 25%.

As to `CC(=O)O[C@H]1CC[C@]23C[C@]24CC[C@]2(C)C5C(C[C@@]2(C)[C@@H]4CC[C@H]3C1(C)C)OC(C(F)(F)F)=C[C@H]5C` (stereo partly drawn), the inhibition at 10 µM was under 25%. Take `CC1O[C@@H]([C@H]2C[C@@H](C)C3C(O2)[C@H](O)[C@@]2(C)[C@@H]4CC[C@H]5C(C)(C)[C@@H](O)CC[C@@]56C[C@@]46CC[C@]32C)C(C)(C)O1` (stereo partly drawn): the inhibition at 10 µM is under 25%.

The same test, now with this note: Aβ-42, 20 umol/L; read-out: % Inhibition (range).
For the compound `CC(C)C(O)[C@H]1C[C@@H](C)[C@H]2[C@H](O1)[C@H](O)[C@@]1(C)[C@@H]3CC[C@H]4C(C)(C)[C@@H](O)CC[C@@]45C[C@@]35CC[C@]21C` (stereo partly drawn), the inhibition at 20 µM was under 25%.

`C[C@@H]1C[C@H]([C@H](O)C(C)(C)O)O[C@H]2[C@H]1[C@@]1(C)CC[C@@]34C[C@@]35CC[C@H](O[C@H]3CN(CC(N)=O)CCO3)C(C)(C)[C@@H]5CC[C@H]4[C@]1(C)[C@H]2O`: the inhibition at 20 µM was under 25%.
